According to BindingDB's records for doi:10.3109/14756366.2012.658786 (Yeungnam University, 2013):

Target: Fatty acid synthase (Gallus gallus, UniProt P12276)
Experiment: FAS Inhibitory Assay
Conditions: pH 7; 37 °C
Experimental: To each microtube (final volume: 100 μL), FAS was added (20-30 μg protein) in a buffer containing 100 mM potassium phosphate (pH 7.0), 2.5 mM dithiothreitol and 2.0 mM EDTA with or without test compounds. The mixtures were preincubated at 37°C for 60 min and the reaction was started by the addition of a substrate mixture containing 0.25 mM NADPH, 0.4 nmol of malonyl CoA and 0.02 μCi of [3H] acetyl CoA. Following incubation at 37°C for 10 min, the reaction was terminated with 60% HClO4. Fatty acids were extracted with 1 mL of hexane and incorporation of radioactivity into the fatty acids was assessed by scintillation counting [Na et al., Bioorg. Med. Chem. Lett., 16:4738-4742].

Chain of Fatty acid synthase (P12276 whole entry): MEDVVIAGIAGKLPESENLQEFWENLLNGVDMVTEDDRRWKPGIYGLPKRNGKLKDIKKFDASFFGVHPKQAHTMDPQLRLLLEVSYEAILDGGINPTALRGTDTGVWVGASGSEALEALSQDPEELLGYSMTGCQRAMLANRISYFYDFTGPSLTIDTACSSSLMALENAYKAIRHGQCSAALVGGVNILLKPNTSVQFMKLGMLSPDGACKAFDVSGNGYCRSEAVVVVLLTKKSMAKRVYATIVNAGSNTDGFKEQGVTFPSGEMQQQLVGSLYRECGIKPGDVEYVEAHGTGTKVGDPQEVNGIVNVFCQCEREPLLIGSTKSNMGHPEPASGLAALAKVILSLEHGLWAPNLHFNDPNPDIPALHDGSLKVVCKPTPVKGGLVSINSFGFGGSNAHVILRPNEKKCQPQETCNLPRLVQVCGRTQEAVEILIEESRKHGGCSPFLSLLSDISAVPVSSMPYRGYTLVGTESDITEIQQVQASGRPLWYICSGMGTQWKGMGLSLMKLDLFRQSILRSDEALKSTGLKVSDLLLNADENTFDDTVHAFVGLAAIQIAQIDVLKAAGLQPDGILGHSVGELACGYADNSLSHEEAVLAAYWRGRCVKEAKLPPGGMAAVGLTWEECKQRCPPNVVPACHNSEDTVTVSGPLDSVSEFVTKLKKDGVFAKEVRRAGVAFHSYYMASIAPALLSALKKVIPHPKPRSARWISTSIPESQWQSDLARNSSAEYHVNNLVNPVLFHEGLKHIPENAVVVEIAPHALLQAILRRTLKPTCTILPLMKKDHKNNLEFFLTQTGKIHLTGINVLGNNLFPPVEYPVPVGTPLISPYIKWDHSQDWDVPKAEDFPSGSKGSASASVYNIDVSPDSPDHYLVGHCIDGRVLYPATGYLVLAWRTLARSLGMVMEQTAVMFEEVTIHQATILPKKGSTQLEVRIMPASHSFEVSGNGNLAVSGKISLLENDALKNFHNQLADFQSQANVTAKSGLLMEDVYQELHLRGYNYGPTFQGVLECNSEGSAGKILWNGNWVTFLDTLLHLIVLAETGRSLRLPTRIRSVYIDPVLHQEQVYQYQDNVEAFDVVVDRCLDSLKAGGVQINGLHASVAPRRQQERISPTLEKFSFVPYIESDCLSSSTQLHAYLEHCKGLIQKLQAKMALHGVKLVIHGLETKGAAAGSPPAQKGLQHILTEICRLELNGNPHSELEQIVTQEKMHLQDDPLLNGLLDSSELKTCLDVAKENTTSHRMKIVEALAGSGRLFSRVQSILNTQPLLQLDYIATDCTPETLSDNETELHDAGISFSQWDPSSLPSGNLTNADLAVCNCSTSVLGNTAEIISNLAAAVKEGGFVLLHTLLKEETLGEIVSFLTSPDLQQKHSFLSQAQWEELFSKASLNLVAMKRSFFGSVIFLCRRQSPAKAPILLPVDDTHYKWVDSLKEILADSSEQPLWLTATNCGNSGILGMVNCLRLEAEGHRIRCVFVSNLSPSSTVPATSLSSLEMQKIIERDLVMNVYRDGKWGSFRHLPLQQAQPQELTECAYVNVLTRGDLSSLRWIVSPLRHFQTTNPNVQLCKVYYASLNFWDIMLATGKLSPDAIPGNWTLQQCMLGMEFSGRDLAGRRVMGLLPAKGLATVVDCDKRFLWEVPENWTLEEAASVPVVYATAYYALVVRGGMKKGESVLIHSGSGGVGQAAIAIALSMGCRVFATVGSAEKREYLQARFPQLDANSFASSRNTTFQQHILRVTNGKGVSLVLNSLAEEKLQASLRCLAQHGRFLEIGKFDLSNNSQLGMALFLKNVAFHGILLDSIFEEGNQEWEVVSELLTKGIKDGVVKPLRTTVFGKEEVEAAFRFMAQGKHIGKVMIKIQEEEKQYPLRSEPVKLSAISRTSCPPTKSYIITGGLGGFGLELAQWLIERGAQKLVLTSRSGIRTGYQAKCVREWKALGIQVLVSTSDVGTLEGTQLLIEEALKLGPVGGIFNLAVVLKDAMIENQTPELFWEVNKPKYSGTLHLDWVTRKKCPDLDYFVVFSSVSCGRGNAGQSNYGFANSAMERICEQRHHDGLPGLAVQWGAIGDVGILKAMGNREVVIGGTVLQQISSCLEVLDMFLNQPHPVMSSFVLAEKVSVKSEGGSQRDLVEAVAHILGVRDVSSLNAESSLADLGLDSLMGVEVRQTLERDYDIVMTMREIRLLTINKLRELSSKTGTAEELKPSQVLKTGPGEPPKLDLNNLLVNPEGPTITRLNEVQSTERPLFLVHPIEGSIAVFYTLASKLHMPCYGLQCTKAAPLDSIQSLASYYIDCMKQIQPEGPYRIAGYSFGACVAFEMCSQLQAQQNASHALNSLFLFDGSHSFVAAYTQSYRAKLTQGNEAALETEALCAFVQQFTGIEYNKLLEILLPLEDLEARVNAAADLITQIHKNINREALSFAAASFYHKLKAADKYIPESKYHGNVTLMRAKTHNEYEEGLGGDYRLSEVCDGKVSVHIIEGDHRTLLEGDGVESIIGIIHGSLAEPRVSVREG

Compound | IC50 [µM]
C/C=C/C/C=C/CCC(=O)[C@H]1O[C@H]1C(N)=O | 13
O=c1cc(-c2ccc(O)c(O)c2)oc2cc(O)cc(O)c12 [2-(3,4-dihydroxyphenyl)-5,7-dihydroxy-4H-chromen-4-one] | 62.5
CCCCCC/C=C\CCCCCCCc1cccc(O)c1C(=O)O [6-{8(Z)-pentadecenyl}salicylic acid] | 17.1

Second part, the compound after the results:

IC50 [µM] | Compound
10.5 | CCCCCC/C=C\CCCCCCCCCc1cccc(O)c1C(=O)O [6-[10'(Z)-heptade-cenyljsalicylic acid]
9.2 | CCCCC/C=C/C/C=C/CCCCCCCc1cccc(O)c1C(=O)O [Ginkgolic acid C17:2 (2)]
